Tests used:
[1] = Radiochemical purity by HPLC on storage at room temperature; assay type: physicochemical; conditions: 4 hours at room temperature
Description: The labeling efficiency was analyzed by instant thin layer chromatography (iTLC) and was typically >98%. For iTLC analysis, 1 μL of diluted labeling solution was applied to a strip of iTLC-SA chromatography paper (Agilent P/N A120B12, 114×2.5 mm) and developed in 0.1M citrate buffer (8 cm solvent migration) to assess free ^177Lu (Rf >0.5) and [^177Lu]-6555 (Rf ˜0). The iTLC strips were analyzed using an Eckert & Ziegler AR-2000 Radio-TLC Imaging Scanner. The radiochemical purity was analyzed by high performance chromatography (HPLC) and was typically >90%. Briefly, the product was analyzed using a Phenomenex Luna 3.0 μm C18(2), 100A, 150 mm×4.6 mm column. Eluent A: 50 mM ammonium acetate in water, eluent B: acetonitrile. Gradient: 2% B from 0-5 min; 2% to 26% B from 5-20 min; 26% to 98% B from 20-25 min; 98% to 2% B from 25-26 min; 2% B from 26-30 min. Flow rate: 1.0 mL/min, Radio-HPLC detector: NaI (Eckert & Zeigler FC-1000), UV: 215 nm. The radiochemical purity remained >90% for three days at room temperature.
The above depicted radiopharmaceutical [^177Lu]-6952 can be prepared as described in Example 19 using the radiochemical precursor 6952 (Example 14 above). The labeling efficiency was analyzed by instant thin layer chromatography (iTLC) and was typically >98%. […] The iTLC strips were analyzed using an Eckert & Ziegler AR-2000 Radio-TLC Imaging Scanner. The radiochemical purity was analyzed by high performance chromatography (HPLC) and was typically >90%. Briefly, the product was analyzed using a Phenomenex Luna 3.0 m C18(2), 100A, 150 mm×4.6 mm column. […]
The labeling efficiency was analyzed by instant thin layer chromatography (iTLC) and was typically >95%. […] The iTLC strips were analyzed using an Eckert & Ziegler AR-2000 Radio-TLC Imaging Scanner. The radiochemical purity was analyzed by high performance chromatography (HPLC) and was typically >95%. Briefly, the product was analyzed using a Phenomenex Luna 3.0 m C18(2), 100Å, 150 mm×4.6 mm column. […]
The labeling efficiency was analyzed by instant thin layer chromatography (iTLC) and was typically >95%. […]

[2] = system: HEK-mFAP tumor-bearing mice; test: 68Ga dynamic PET/CT imaging; assay type: in vivo, mouse; conditions: dynamic PET over 60 min, IV bolus
Description: Part 1. Dynamic PET Imaging. The aim of the study is to perform ^68Ga-6555 PET/CT dynamic imaging in HEK-mFAP tumor-bearing mice to assess tumor uptake and retention over time, as well as non-specific uptake. HEK-mFAP tumor-bearing mice were used for the study (N=3). ^68Ga-6555 (prepared as per Example 20) PET imaging was carried out on a dedicated small animal PET/CT scanner (Siemens Multimodality Inveon, Siemens Medical Solutions USA, Inc.). The mice were anesthetized using 3% isoflurane/medical air inhalation prior to the radiotracer injection and throughout the scan duration. Warming was used to maintain healthy core body temperature of the mice during periods of unconsciousness. Following a bolus intravenous injection (via the lateral tail vein) of ^68Ga-6555 (average of 8 MBq, 7.7-8.1 MBq range), a dynamic emission scan was acquired in list mode format over 60 min. […] The reconstructed PET/CT images were analyzed with the Siemens Inveon Research Workplace software. The radioactivity retention within the selected tissue was obtained from mean voxel intensity values within the VOI and then converted to megabecquerels per milliliter using the calibration factor determined for the Inveon PET System. […] We used the maximum SUV value (SUVmax) within a VOI as a quantitative imaging metric which is independent of tissue intrinsic variations. […]

For `C[C@@H](NC(=O)c1ccc(CNC(=O)CN2CCN3CCN4CCN(CC2)CC(=O)[O][Ga]([O]C(=O)C3)[O]C(=O)C4)cc1)C(=O)N1CCC[C@H]1B(O)O` [[^68Ga]-6555], the radiochemical purity remained [1] was > 95%, the “time of accumulation in the tumor (time-vs-activity curve)” value [2] was < 5 min and the “time of reaching a plateau in the tumor” value [2] was 60 min.

Source: patent US11707539B2, “FAP-targeted radiopharmaceuticals and imaging agents, and uses related thereto” (Trustees of Tufts College, priority 2020, dated 2023)
